Consider ten molecules from BindingDB's records for doi:10.1016/j.bmcl.2012.07.104 (University of Lisbon, 2012).

This test has as its target T1, Cathepsin B-like cysteine protease (Trypanosoma brucei, UniProt Q6R7Z5).
T1 sequence (Q6R7Z5 whole entry): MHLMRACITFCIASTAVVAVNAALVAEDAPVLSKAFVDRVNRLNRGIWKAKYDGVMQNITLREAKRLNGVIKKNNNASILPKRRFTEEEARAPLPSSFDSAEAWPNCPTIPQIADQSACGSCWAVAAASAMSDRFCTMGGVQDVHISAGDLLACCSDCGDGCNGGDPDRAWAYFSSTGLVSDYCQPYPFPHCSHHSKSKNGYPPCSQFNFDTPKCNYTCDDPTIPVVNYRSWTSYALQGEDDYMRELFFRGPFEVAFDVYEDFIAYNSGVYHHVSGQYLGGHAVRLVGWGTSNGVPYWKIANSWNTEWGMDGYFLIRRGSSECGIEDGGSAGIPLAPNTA
Nature of the test: Inhibition of Trypanosoma brucei CatB.
Take `CCN(CC)CCCC(C)Nc1c2nc3ccccc3c-2n(C)c2ccccc12` (stereo not given): the IC50 (commonly the concentration that gives 50% inhibition) was above 100 µM. On to `Cn1c2c3ccccc3nc-2c(Nc2cccnc2)c2ccccc21`, for which the IC50 was 59 µM. For `CN(C)CC(C)(C)CNc1c2nc3ccccc3c-2n(C)c2ccccc12`, 62 µM corresponded to half-maximal inhibition (IC50). The figure for `Cn1c2c3ccc(Cl)cc3nc-2c(NC2CCNCC2)c2ccc(Cl)cc21` is 43 µM; for `Cn1c2c3ccccc3nc-2c(NC2CCN(Cc3ccccc3O)CC2)c2ccccc21` it is 26 µM; for `CC(CN(C)C)Nc1c2nc3ccccc3c-2n(C)c2ccccc12` (stereo not given) it is above 100 µM.

`CCN(CC)Cc1ccc(Nc2c3nc4ccccc4c-3n(C)c3ccccc23)cc1O` returned an IC50 of 59 µM.

The molecule `Cn1c2c3ccccc3nc-2c(NC2CCNCC2)c2ccc(Cl)cc21` yielded an IC50 of 59 µM. The figure for `CC(C)CN1CCC(Nc2c3nc4ccccc4c-3n(C)c3ccccc23)CC1` is 26 µM; for `CC(C)NCCCNc1c2nc3ccccc3c-2n(C)c2ccccc12` it is 62 µM.
